Measured values from the NIST ThermoML archive (doi:10.1016/j.jct.2013.05.031).

Details: for surface tension liquid-gas: Capillary rise; for viscosity / mass density: 101.33 kPa, Liquid; for viscosity: Capillary tube (Ostwald / Ubbelohde) method; for mass density: Pycnometric method

CCCCCC[N+](CC)(CC)CC.O=S(=O)([N-]S(=O)(=O)C(F)(F)F)C(F)(F)F [triethylhexylammonium bis((trifluoromethyl)sulfonyl)imide]
Details	mass density [kg/m3]	surface tension liquid-gas [mN/m]	viscosity [mPa·s]
298 K	1291.4	34.1	186.6
303 K	1287.4	33.7	137.9
308 K	1283.4	33.3	105.1
313 K	1279.5	32.9	81.64
318 K	1275.2	32.5	65.32
323 K	1271.3	32.1	52.03
328 K	1267.1	31.7	42.34
333 K	1262.5	31.3	35.41
338 K	1258.5	30.9	28.94
343 K	1254.5	30.5	24.77
348 K	1251.3	30.1	20.96
353 K	1247.3	29.7	18.03
358 K	1243.3	29.3	15.83
363 K	1238.4	28.9	13.9
368 K	1234.9	28.5	12.25
373 K	1231.1	28.2	10.86

CCCCCCCC[N+](CC)(CC)CC.O=S(=O)([N-]S(=O)(=O)C(F)(F)F)C(F)(F)F [triethyloctylammonium bis[(trifluoromethyl)sulfonyl]imide]
Details	mass density [kg/m3]	surface tension liquid-gas [mN/m]	viscosity [mPa·s]
298 K	1251.2	33.1	221.4
303 K	1247.2	32.8	163.9
308 K	1242.9	32.3	124.7
313 K	1239.4	31.8	96.76
318 K	1235.2	31.4	76.47
323 K	1231.3	31	60.52
328 K	1227.5	30.6	48.63
333 K	1223.2	30.1	39.85
338 K	1219	29.7	33.2
343 K	1216	29.3	28.23
348 K	1212.9	28.9	23.8
353 K	1207.8	28.6	20.36
358 K	1203.5	28.1	17.83
363 K	1200.2	27.7	15.55
368 K	1196	27.3	13.5
373 K	1192.3	26.9	12.05

CCCCCCCCCCCC[N+](CC)(CC)CC.O=S(=O)([N-]S(=O)(=O)C(F)(F)F)C(F)(F)F
Details	mass density [kg/m3]	surface tension liquid-gas [mN/m]	viscosity [mPa·s]
298 K	1191.1	31.8	311.8
303 K	1187.1	31.3	227.6
308 K	1183.1	30.9	167.7
313 K	1179.4	30.3	137.8
318 K	1175.7	29.9	98.82
323 K	1171.6	29.5	78.71
328 K	1167.9	29.1	62.52
333 K	1164.2	28.5	49.82
338 K	1160.7	28.2	41.48
343 K	1157.2	27.7	34.69
348 K	1153.3	27.2	29.44
353 K	1149.5	26.8	25.13
358 K	1145.5	26.4	21.3
363 K	1141.4	26	18.31
368 K	1137.6	25.5	16.51
373 K	1133.7	25.2	14.2

CCCCC[N+](CC)(CC)CC.O=S(=O)([N-]S(=O)(=O)C(F)(F)F)C(F)(F)F [triethylpentylammonium bis(trifluoromethylsulfonyl)imide]
Details	mass density [kg/m3]	surface tension liquid-gas [mN/m]	viscosity [mPa·s]
298 K	1321.5	35.7	161.6
303 K	1317.4	35.4	121.4
308 K	1313.2	35	92.11
313 K	1308.9	34.7	71.86
318 K	1304.9	34.3	57.52
323 K	1301	34	46.74
328 K	1296.6	33.6	37.78
333 K	1293.1	33.3	31.43
338 K	1289.1	32.9	26.57
343 K	1284.7	32.6	22.47
348 K	1280.9	32.2	19.27
353 K	1277.3	31.8	16.71
358 K	1272.9	31.5	14.79
363 K	1268.6	31.1	12.87
368 K	1265.1	30.7	11.5
373 K	1260.7	30.4	10.17
